Read-outs that look alike come from different tables or passages of the source.
Key:
hNav1.7 = biological target: T1, hNav1.7 (Homo sapiens, UniProt Q15858); experiment: Tritiated compound binding (LBA) to membranes from cells expressing hNav1.7 and the β1 subunit, competitive binding; conditions: competitive binding vs 100 pM [3H]compound, 18 h, room temperature, membranes with hNav1.7 and β1 subunit
T1 construct: expressed in transfected cells
Procedure, shortened: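 Membranes from cells expressing hNav1.7 with β1 were incubated 18 h at room temperature with 100 pM tritiated formula (I) compound and increasing test compound, in 100 mM NaCl, 20 mM Tris HCl pH 7.4, 0.01% BSA.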

human NaV1.7 = biological target: T2, human NaV1.7 (Homo sapiens, UniProt Q15858); experiment: Patch voltage clamp electrophysiology assay (EP), NaV1.7; format: cell-based; conditions: HEK-293 cells stably expressing NaV1.7 with β1 subunit; whole-cell patch clamp, membrane potential −60 mV (inactivated state)
T2 construct: permanently transfected with an expression vector containing the full-length cDNA coding for the desired human sodium channel α-subunit; expressed in transfected cells; host or cells: HEK-293
T2 sequence (Q15858 1-1977 isoform Q15858-3): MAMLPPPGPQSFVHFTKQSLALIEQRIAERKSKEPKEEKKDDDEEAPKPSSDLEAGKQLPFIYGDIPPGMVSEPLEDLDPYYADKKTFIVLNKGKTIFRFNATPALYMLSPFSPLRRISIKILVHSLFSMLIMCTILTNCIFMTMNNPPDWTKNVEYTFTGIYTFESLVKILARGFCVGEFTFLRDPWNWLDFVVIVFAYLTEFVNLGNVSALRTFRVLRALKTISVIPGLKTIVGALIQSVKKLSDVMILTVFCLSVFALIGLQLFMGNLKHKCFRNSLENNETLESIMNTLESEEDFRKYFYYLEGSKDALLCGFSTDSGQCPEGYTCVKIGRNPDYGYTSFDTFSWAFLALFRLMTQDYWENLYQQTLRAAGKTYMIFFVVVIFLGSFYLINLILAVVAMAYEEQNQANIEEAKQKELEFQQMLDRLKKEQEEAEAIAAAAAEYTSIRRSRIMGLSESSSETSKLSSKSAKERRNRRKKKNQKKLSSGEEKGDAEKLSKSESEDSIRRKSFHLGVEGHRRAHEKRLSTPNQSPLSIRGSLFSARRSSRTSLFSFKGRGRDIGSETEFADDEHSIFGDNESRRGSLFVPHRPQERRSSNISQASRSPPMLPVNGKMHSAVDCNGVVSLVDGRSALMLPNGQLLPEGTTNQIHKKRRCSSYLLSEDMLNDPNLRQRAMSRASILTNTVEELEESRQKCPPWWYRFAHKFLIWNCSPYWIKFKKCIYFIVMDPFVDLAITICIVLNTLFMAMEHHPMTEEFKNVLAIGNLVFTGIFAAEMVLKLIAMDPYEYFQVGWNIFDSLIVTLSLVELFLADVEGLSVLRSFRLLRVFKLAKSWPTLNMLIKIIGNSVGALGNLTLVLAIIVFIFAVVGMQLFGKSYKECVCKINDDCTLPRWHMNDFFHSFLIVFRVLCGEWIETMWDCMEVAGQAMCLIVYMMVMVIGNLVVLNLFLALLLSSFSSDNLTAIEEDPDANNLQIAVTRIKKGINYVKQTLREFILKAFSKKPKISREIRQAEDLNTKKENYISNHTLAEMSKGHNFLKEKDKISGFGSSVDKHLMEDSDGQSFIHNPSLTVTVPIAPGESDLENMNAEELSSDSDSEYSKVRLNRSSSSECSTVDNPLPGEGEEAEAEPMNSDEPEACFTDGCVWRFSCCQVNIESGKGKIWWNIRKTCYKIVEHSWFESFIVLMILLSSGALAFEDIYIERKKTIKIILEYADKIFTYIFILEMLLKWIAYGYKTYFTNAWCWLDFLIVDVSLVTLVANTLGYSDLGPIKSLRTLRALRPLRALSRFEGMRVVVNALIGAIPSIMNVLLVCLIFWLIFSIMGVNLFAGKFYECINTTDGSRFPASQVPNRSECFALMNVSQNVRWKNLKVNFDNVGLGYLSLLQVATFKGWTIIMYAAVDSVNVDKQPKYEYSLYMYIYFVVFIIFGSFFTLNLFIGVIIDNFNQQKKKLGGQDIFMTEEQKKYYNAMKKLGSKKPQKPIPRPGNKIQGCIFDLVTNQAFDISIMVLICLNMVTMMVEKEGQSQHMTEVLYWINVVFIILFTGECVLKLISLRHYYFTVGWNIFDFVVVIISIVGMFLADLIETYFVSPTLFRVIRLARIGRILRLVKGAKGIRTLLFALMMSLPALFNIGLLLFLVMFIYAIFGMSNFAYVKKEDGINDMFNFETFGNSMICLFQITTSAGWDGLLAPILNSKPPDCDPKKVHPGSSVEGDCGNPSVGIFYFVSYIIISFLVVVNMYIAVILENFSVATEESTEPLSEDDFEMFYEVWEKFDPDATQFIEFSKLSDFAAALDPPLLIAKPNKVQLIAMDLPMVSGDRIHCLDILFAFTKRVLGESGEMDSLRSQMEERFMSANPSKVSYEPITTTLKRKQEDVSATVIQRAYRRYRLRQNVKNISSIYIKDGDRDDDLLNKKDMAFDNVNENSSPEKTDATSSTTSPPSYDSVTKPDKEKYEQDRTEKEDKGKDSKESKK
T2 sequence (Q07699 19-218 partner): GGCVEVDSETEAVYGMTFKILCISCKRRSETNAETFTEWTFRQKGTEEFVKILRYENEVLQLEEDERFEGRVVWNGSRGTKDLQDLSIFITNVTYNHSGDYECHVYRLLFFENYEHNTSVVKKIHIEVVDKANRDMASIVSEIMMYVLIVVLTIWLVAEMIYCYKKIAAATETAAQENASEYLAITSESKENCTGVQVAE
Procedure, shortened: (§1)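 HEK-293 cells stably expressing human α-subunit with β1; whole-cell patch clamp (PatchXpress or manual), ambient temperature, pH 7.4 external NaCl, CsF internal. Held at −60 mV (full inactivation), stepped to −150 mV for 20 ms, then test pulse; percent current decrease after compound wash-on taken as block.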

NaV1.5 = biological target: T3, NaV1.5 (Homo sapiens, UniProt Q14524); experiment: Patch voltage clamp electrophysiology assay (EP), NaV1.5; format: cell-based; conditions: HEK-293 cells stably expressing NaV1.5 with β1 subunit, whole-cell patch clamp, membrane potential −60 mV (inactivated state)
T3 construct: permanently transfected with an expression vector containing the full-length cDNA coding for the desired human sodium channel α-subunit; expressed in transfected cells; host or cells: HEK-293
T3 sequence (Q14524 whole entry): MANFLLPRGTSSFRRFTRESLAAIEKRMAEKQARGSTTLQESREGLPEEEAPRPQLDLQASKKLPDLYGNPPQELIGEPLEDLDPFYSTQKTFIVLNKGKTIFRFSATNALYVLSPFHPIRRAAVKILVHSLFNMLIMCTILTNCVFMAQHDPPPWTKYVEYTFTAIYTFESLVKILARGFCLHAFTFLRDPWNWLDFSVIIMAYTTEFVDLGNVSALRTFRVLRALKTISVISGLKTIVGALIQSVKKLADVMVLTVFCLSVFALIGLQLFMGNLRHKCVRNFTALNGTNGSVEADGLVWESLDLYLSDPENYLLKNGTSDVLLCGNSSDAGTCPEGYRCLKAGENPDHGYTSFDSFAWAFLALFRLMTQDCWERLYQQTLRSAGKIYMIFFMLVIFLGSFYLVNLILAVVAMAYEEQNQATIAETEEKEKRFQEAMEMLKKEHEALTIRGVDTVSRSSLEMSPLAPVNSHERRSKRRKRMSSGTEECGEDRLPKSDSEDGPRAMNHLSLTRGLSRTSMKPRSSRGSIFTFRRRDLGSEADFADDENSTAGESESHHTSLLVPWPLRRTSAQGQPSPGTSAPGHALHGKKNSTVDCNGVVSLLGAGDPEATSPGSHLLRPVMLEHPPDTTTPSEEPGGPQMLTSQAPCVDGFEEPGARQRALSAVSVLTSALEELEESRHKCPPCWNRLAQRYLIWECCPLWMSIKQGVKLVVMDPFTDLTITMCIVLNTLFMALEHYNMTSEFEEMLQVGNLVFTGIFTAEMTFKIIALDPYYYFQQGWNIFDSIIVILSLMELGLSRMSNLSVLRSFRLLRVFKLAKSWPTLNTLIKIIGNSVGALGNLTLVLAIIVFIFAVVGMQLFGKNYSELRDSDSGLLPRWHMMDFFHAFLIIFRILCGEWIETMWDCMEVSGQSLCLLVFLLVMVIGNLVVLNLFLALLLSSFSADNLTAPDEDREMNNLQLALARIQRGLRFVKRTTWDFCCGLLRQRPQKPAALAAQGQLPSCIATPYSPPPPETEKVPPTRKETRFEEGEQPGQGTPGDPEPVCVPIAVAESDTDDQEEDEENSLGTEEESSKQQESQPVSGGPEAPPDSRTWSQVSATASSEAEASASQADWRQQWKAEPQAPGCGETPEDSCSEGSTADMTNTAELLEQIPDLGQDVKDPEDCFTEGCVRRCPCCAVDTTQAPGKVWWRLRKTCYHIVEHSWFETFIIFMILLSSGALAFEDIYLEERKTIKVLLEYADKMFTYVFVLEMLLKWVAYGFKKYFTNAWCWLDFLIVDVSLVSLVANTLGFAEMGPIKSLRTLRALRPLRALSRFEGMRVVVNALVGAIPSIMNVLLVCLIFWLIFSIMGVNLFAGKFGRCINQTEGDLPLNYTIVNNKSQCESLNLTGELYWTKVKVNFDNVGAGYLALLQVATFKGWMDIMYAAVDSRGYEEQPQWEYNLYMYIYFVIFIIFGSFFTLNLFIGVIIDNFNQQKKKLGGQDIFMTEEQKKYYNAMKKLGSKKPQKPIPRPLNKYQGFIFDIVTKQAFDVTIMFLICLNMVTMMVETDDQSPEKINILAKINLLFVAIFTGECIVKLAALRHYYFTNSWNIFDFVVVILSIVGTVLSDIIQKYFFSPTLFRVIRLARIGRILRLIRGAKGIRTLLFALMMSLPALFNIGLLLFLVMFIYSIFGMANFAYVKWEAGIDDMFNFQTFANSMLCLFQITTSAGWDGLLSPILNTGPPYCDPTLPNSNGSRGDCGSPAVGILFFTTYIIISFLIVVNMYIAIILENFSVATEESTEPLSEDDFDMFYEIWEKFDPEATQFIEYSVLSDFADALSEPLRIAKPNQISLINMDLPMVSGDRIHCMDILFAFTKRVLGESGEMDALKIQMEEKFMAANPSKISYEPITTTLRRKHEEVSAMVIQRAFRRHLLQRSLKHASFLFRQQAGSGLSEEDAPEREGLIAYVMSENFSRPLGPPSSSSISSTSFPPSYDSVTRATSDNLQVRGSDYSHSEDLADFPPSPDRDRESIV
Procedure, shortened: as §1

T1 sequence (Q15858 1-1977 isoform Q15858-3): as the sequence (Q15858 1-1977 isoform Q15858-3) above
T1 sequence (Q07699 19-218 partner): as the sequence (Q07699 19-218 partner) above

Compound | IC50 (hNav1.7) | IC50 (human NaV1.7) | IC50 (NaV1.5; read-out: Nav1.5) | IC50 (NaV1.5; human, HEK-293 cells stably expressing human NaV1.5 with β1 subunit, pH 7.4)
CC(C)COc1ncc(Oc2cc(F)c(C(=O)N[C@H](C(=O)O)C(C)C)cc2Cl)cc1Cl [Example 185, (S)-2-(5-chloro-4-((5-chloro-6-isobutoxypyridin-3-yl)oxy)-2-fluorobenzamido)-3-methylbutanoic acid] | 100 nM | 9600 nM | 17000 nM | 
C[C@@H]1OCN(C(=O)c2cc(C3CC3)c(OCC34CC5CC(CC(C5)C3)C4)cc2F)[C@H]1C(=O)O [Example 163, (4R,5S)-3-[4-(1-adamantylmethoxy)-5-cyclopropyl-2-fluoro-benzoyl]-5-methyl-oxazolidine-4-carboxylic acid] | 120 nM | 820 nM | 4700 nM | 
CC(C)(C)[C@H](NC(=O)c1cc(C2CC2)c(OCC23CC4CC(CC(C4)C2)C3)cc1F)C(=O)O [Example 52, (S)-2-(4-(adamantan-1-ylmethoxy)-5-cyclopropyl-2-fluorobenzamido)-3,3-dimethylbutanoic acid] | 98 nM | 1400 nM | 7500 nM | 
C[C@@H]1[C@@H](C(=O)O)N(C(=O)c2cc(C3CC3)c(OCC34CC5CC(CC(C5)C3)C4)cc2F)C[C@@H]1F [Example 219, (2S,3R,4R)-1-(4-(adamantan-1-ylmethoxy)-5-cyclopropyl-2-fluorobenzoyl)-4-fluoro-3-methylpyrrolidine-2-carboxylic acid] | 6.4 nM | 260 nM | 12000 nM | 
O=C(O)C1COCN1C(=O)c1cc(C2CC2)c(OCC23CC4CC(CC(C4)C2)C3)cc1F (stereo in doubt) [Example 154, (4R)-3-[4-(1-adamantylmethoxy)-5-cyclopropyl-2-fluoro-benzoyl]oxazolidine-4-carboxylic acid] | 59 nM | 830 nM | 16000 nM | 

Further compounds by falling IC50 (hNav1.7), results first:

IC50 (hNav1.7) | IC50 (human NaV1.7) | Compound | IC50 (NaV1.5; read-out: Nav1.5) | IC50 (NaV1.5; human, HEK-293 cells stably expressing human NaV1.5 with β1 subunit, pH 7.4)
7400 nM | 11000 nM | O=C(NC1(C(=O)O)COC1)c1cc(C2CC2)c(OCC23CC4CC(CC(C4)C2)C3)cc1F [Example 77, 3-(4-(adamantan-1-ylmethoxy)-5-cyclopropyl-2-fluorobenzamido)oxetane-3-carboxylic acid] | 12000 nM | 
590 nM | 1500 nM | O=C(O)[C@@H]1CCCN1C(=O)c1cc(C2CC2)c(OC2C3CC4CC2CC(Cl)(C4)C3)cc1F (single isomer, unassigned) [Example 80] |  | ≥ 30000 nM
290 nM | 360 nM | C[C@@H]1[C@H](O)CN(C(=O)c2cc(C3CC3)c(OCC34CC5CC(CC(C5)C3)C4)cc2F)[C@@H]1C(=O)O [Example 231, (2S,3S,4S)-1-(4-(adamantan-1-ylmethoxy)-5-cyclopropyl-2-fluorobenzoyl)-4-hydroxy-3-methylpyrrolidine-2-carboxylic acid] | 15000 nM | 
32 nM | 220 nM | O=C(O)[C@@H]1CCCN1C(=O)c1cc(C2CC2)c(COc2cc(Cl)cc(OC(F)(F)F)c2)cc1F [Example 182, (S)-1-(4-((3-chloro-5-(trifluoromethoxy)phenoxy)methyl)-5-cyclopropyl-2-fluorobenzoyl)pyrrolidine-2-carboxylic acid] | 25000 nM | 
18 nM | 880 nM | C[C@H]1CCN(C(=O)c2cc(C3CC3)c(OCC3CCN([C@@H](c4cc(Cl)cc(Cl)c4)C(F)(F)F)CC3)cc2F)[C@@H]1C(=O)O (single isomer, unassigned) [Example 121b] | 17000 nM | 
9.4 nM | 87 nM | O=C(O)C1SCCN1C(=O)c1cc(C2CC2)c(OCC23CC4CC(CC(C4)C2)C3)cc1F (stereo not drawn) [Example 78, 3-(4-(adamantan-1-ylmethoxy)-5-cyclopropyl-2-fluorobenzoyl)thiazolidine-2-carboxylic acid] | 13000 nM | 
